Tested on: Mitochondria-located protein genes
Assay: DNA chip mRNA expression in yeast, mitochondria-located protein genes (Table 2)
Type: cell-based, Saccharomyces cerevisiae S288C
Conditions: cells incubated two hours with the chemical substance
Experimental: Yeast (Saccharomyces cerevisiae S288C (α SUC2mal mel gap2 CUP1)) were incubated at 25° C. on YPD medium (yeast extract 1%, polypepton 2%, glucose 2%). One of toxic chemical substances was added to the cells at logarithmic growth phase, and the cells were further incubated for two hours. Cells were cultured without any chemical substance in the same condition, and were used as control. Concentrations of the chemical substances were defined to inhibit the growth of the yeast but not lead to death.
After completion of the incubation, the culture was centrifuged to collect the cells. To the cells, sodium acetate buffer (50 mM sodium acetate, 10 mM EDTA, 1% SDS) was added, and the mixture was shaken at 65° C. for five minutes, followed by returning to room temperature, and obtaining the supernatant, of which the procedures were repeated two times. To the supernatant, ½ amount of a solution of phenol/chloroform was added, and the mixture was centrifuged to give a supernatant, which was added with an equal amount of chloroform, and the mixture was centrifuged to give a supernatant. To the supernatant, an equal amount of isopropanol containing 0.3 M sodium acetate was added, and the mixture was allowed to stand at room temperature for 30 minutes, after which the mixture was centrifuged to give a sediment of the whole RNAs. Seventy % ethanol was added to the sediment, and the mixture was again centrifuged to give a sediment, which was then dried and dissolved in water. mRNA was isolated from the whole RNAs as followings. In view of the fact that a poly A chain is attached to the 3′ terminus of mRNA, a polynucleotide having a poly T structure which was immobilized on the surface of latex beads was used to trap the mRNA, and then the mRNA was washed and eluted with spine column (Oligotex-dT30<Super>mRNA Purification Kit, Takara). Reverse transcription of the mRNA was conducted with a reverse transcriptase (Super Script II Reverse Transcriptase; catalogue No. 18064-014, GibcoBRL) using fluorescence-labeled nucleotides to give cDNAs that were introduced with Cy3-dUTP or Cy5-dUTP during the reverse transcription.
The labeled cDNAs were dissolved in TE buffer (10mM Tris-HCl/1 mM EDTA, pH8.0), and the solution was dropped on the DNA chip containing the whole genes of yeast (DNA Chip Research Inc. Japan) so that the cDNAs were hybridized on the DNA chip at 65° C. for over 12 hours. The fluoresces intensity of the DNA chip was read with a scanner, and the ratio relative to the fluorescence intensity resulting from the absence of chemical substance was estimated as the following, which is shown in Tables 1 to 9: […]

Q: Which results are given for `CCCCCCCCCCCCOS(=O)(=O)[O-].[Na+]` [(18), sodium lauryl sulfate]?
A: The level of expressed mRNA in the presence of chemical substance/The level of expressed mRNA in the absence of chemical substance (yeast gene YJR121W): 1.4; The level of expressed mRNA in the presence of chemical substance/The level of expressed mRNA in the absence of chemical substance (yeast gene YKL003C): 1.2; The level of expressed mRNA in the presence of chemical substance/The level of expressed mRNA in the absence of chemical substance (yeast gene YKL016C): 1.7; The level of expressed mRNA in the presence of chemical substance/The level of expressed mRNA in the absence of chemical substance (yeast gene YKL141W): 1.8; The level of expressed mRNA in the presence of chemical substance/The level of expressed mRNA in the absence of chemical substance (yeast gene YKL142W): 3.6; The level of expressed mRNA in the presence of chemical substance/The level of expressed mRNA in the absence of chemical substance (yeast gene YKL148C): 1.0; The level of expressed mRNA in the presence of chemical substance/The level of expressed mRNA in the absence of chemical substance (yeast gene YKL170W): 1.4; The level of expressed mRNA in the presence of chemical substance/The level of expressed mRNA in the absence of chemical substance (yeast gene YKL194C): 1.1; The level of expressed mRNA in the presence of chemical substance/The level of expressed mRNA in the absence of chemical substance (yeast gene YKR066C): 1.1; The level of expressed mRNA in the presence of chemical substance/The level of expressed mRNA in the absence of chemical substance (yeast gene YLL041C): 1.7; The level of expressed mRNA in the presence of chemical substance/The level of expressed mRNA in the absence of chemical substance (yeast gene YLR038C): 2.1; The level of expressed mRNA in the presence of chemical substance/The level of expressed mRNA in the absence of chemical substance (yeast gene YLR259C): 1.0; The level of expressed mRNA in the presence of chemical substance/The level of expressed mRNA in the absence of chemical substance (yeast gene YLR295C): 1.5; The level of expressed mRNA in the presence of chemical substance/The level of expressed mRNA in the absence of chemical substance (yeast gene YLR304C): 0.7; The level of expressed mRNA in the presence of chemical substance/The level of expressed mRNA in the absence of chemical substance (yeast gene YLR348C): 1.0; The level of expressed mRNA in the presence of chemical substance/The level of expressed mRNA in the absence of chemical substance (yeast gene YLR395C): 2.3; The level of expressed mRNA in the presence of chemical substance/The level of expressed mRNA in the absence of chemical substance (yeast gene YML054C): 1.6; The level of expressed mRNA in the presence of chemical substance/The level of expressed mRNA in the absence of chemical substance (yeast gene YML120C): 1.6; The level of expressed mRNA in the presence of chemical substance/The level of expressed mRNA in the absence of chemical substance (yeast gene YML129C): 1.3; The level of expressed mRNA in the presence of chemical substance/The level of expressed mRNA in the absence of chemical substance (yeast gene YMR023C): 1.4; The level of expressed mRNA in the presence of chemical substance/The level of expressed mRNA in the absence of chemical substance (yeast gene YMR035W): 2.4; The level of expressed mRNA in the presence of chemical substance/The level of expressed mRNA in the absence of chemical substance (yeast gene YMR083W): 1.1; The level of expressed mRNA in the presence of chemical substance/The level of expressed mRNA in the absence of chemical substance (yeast gene YMR089C): 1.1; The level of expressed mRNA in the presence of chemical substance/The level of expressed mRNA in the absence of chemical substance (yeast gene YMR152W): 0.9; The level of expressed mRNA in the presence of chemical substance/The level of expressed mRNA in the absence of chemical substance (yeast gene YMR203W): 0.7; The level of expressed mRNA in the presence of chemical substance/The level of expressed mRNA in the absence of chemical substance (yeast gene YMR267W): 1.3; The level of expressed mRNA in the presence of chemical substance/The level of expressed mRNA in the absence of chemical substance (yeast gene YNL055C): 1.7; The level of expressed mRNA in the presence of chemical substance/The level of expressed mRNA in the absence of chemical substance (yeast gene YNL071W): 1.2; The level of expressed mRNA in the presence of chemical substance/The level of expressed mRNA in the absence of chemical substance (yeast gene YNL073W): 1.0; The level of expressed mRNA in the presence of chemical substance/The level of expressed mRNA in the absence of chemical substance (yeast gene YNL104C): 0.9; The level of expressed mRNA in the presence of chemical substance/The level of expressed mRNA in the absence of chemical substance (yeast gene YNL256W): 0.6; The level of expressed mRNA in the presence of chemical substance/The level of expressed mRNA in the absence of chemical substance (yeast gene YOL096C): 1.2; The level of expressed mRNA in the presence of chemical substance/The level of expressed mRNA in the absence of chemical substance (yeast gene YOR020C): 1.7; The level of expressed mRNA in the presence of chemical substance/The level of expressed mRNA in the absence of chemical substance (yeast gene YOR037W): 1.6; The level of expressed mRNA in the presence of chemical substance/The level of expressed mRNA in the absence of chemical substance (yeast gene YOR100C): 0.8; The level of expressed mRNA in the presence of chemical substance/The level of expressed mRNA in the absence of chemical substance (yeast gene YOR130C): 1.1; The level of expressed mRNA in the presence of chemical substance/The level of expressed mRNA in the absence of chemical substance (yeast gene YOR142W): 1.0; The level of expressed mRNA in the presence of chemical substance/The level of expressed mRNA in the absence of chemical substance (yeast gene YOR150W): 1.3; The level of expressed mRNA in the presence of chemical substance/The level of expressed mRNA in the absence of chemical substance (yeast gene YOR176W): 2.1; The level of expressed mRNA in the presence of chemical substance/The level of expressed mRNA in the absence of chemical substance (yeast gene YOR187W): 1.3; The level of expressed mRNA in the presence of chemical substance/The level of expressed mRNA in the absence of chemical substance (yeast gene YOR316C): 1.0; The level of expressed mRNA in the presence of chemical substance/The level of expressed mRNA in the absence of chemical substance (yeast gene YPL040C): 1.1; The level of expressed mRNA in the presence of chemical substance/The level of expressed mRNA in the absence of chemical substance (yeast gene YPL134C): 1.3; The level of expressed mRNA in the presence of chemical substance/The level of expressed mRNA in the absence of chemical substance (yeast gene YPL135W): 1.7; The level of expressed mRNA in the presence of chemical substance/The level of expressed mRNA in the absence of chemical substance (yeast gene YPL215W): 1.1; The level of expressed mRNA in the presence of chemical substance/The level of expressed mRNA in the absence of chemical substance (yeast gene YPL262W): 1.2; The level of expressed mRNA in the presence of chemical substance/The level of expressed mRNA in the absence of chemical substance (yeast gene YPR024W): 0.8; The level of expressed mRNA in the presence of chemical substance/The level of expressed mRNA in the absence of chemical substance (yeast gene YPR037C): 1.7; The level of expressed mRNA in the presence of chemical substance/The level of expressed mRNA in the absence of chemical substance (yeast gene YPR047W): 1.5; The level of expressed mRNA in the presence of chemical substance/The level of expressed mRNA in the absence of chemical substance (yeast gene YPR134W): 1.2

From patent US8192962B2, “Processes for detecting toxic substances” (Daikin Industries, Ltd., priority 2001, dated 2012)
